PMC12817916, “A small-molecule HSP90 inhibitor, NVP-HSP990, alleviates rotavirus infection” (Journal of Virology, 2025)

Experiments:
Caco-2 cells = assay: Cytotoxicity assay (CCK-8); format: cell-based, Human; details: Caco-2 cells, 24 h, CCK-8; read-out: CC50
Experimental: (§1) To evaluate the cytotoxicity of different HSP90 inhibitors in vitro, 10,000 MA104 cells, 30,000 Caco-2 cells, and 80,000 HT-29 cells in 100 µL complete DMEM medium were seeded in 96-well plates and cultured at 37°C and 5% CO2 for 24 h to reach about 100% confluence, and a cell-free control was also set. After removing the initial medium, 100 µL of complete DMEM medium containing the indicated concentrations of drugs was added to each well, and the plates were incubated at 37°C and 5% CO2. Twenty-four hours later, the drug-containing medium was replaced with 100 µL fresh complete DMEM medium plus 10 µL 5 mM CCK-8 reagent (Beyotime, China), and OD450 absorbance of each well was detected 3 h later using a microplate reader (Gene Company Limited, China). Relative cell viability rate = OD450 (drug-treated cells − cell-free control) / OD450 (0 µM drug-treated cells − cell-free control).
(§2) The 50% cytotoxic concentration (CC50) values were determined by nonlinear regression (curve fit) analysis in GraphPad Prism 9.0 (GraphPad Software). Dose-response data (drug concentrations as X-axis and normalized cell viability percentages as Y-axis) were fitted to a Dose-response Inhibition model ("[Inhibitor] vs. normalized response-Variable slope"). The curve was constrained to a bottom limit of 0% viability. The CC50 value was automatically calculated as the X-intercept at Y=50%. Model adequacy was validated using goodness-of-fit metrics (R²≥0.95), 95% confidence intervals, and residual distribution analysis. Final CC50 values were derived from three independent biological replicates and reported as mean ± SEM.

HT-29 cells = assay: Cytotoxicity assay (CCK-8); format: cell-based, Human; details: HT-29 cells, 24 h, CCK-8; read-out: CC50
Experimental: as §1, §2

[1] = test system: MAPK signaling pathway (ERK1/2, p38 MAPK, SAPK/JNK); assay: Western blot of MAPK components; format: cell-based; details: WB; for MAPK activation (especially ERK1/2 and p38 MAPK): 100 nM, 20 h
Experimental: MA104, Caco-2, and HT-29 cells were mock-infected with PBS, infected with RV Wa or SA11 strains (MOI = 3), or treated with 1 µM C16-PAF (C16) for 1 h. After removing the viruses or C16-PAF and washing cells two times with DMEM, the cells were cultivated with 2 mL DMEM containing 100 nM NVP-HSP990 (+), an equal volume of DMSO (−), or 1 µM C16-PAF at 37°C and 5% CO2 for 20 h. Then, the cells in each well (~5 × 10^5 cells) were lysed with 100 µL RIPA lysis buffer (Beyotime, China) plus protease inhibitor cocktail (Thermo Fisher Scientific, USA). The cell lysates were collected in 1.5 mL EP tubes, sonicated five times for 15 s at 80 watts on ice, and clarified by centrifugation at 12,000 × g for 10 min at 4°C. After protein quantification with a BCA kit (Beyotime, China), the protein samples were mixed with 25 µL 5× SDS loading buffer (Beyotime, China), boiled at 100°C for 5 min, chilled on ice, vortexed for seconds, and centrifuged at 12,000 × g for 3 min at room temperature. Twenty micrograms of protein was subjected to protein electrophoresis in precast 4–20% SDS-PAGE gels (Beyotime, China), and then transferred to 0.22 µm PVDF membranes (Millipore, USA). After blocking with 5% BSA, the membranes were incubated with rabbit antibodies to MAPK components (SAPK/JNK, phospho-SAPK/JNK, p38 MAPK, phospho-p38 MAPK, ERK1/2, phospho-ERK1/2) (CST, USA), rabbit anti-RV VP6/VP7 polyclonal antibodies (CUSABIO, China), or mouse mAb to β-actin (Servicebio, China) as an internal reference. Afterward, the membranes were incubated with horseradish peroxidase-conjugated rat anti-rabbit IgG (CST, USA) or rat anti-mouse IgG (CST, USA). Immunoreactive bands were visualized using enhanced chemiluminescence substrate BeyoECL Plus (Beyotime, China).
Fig 4 NVP-HSP990 inhibited MAPK activation and facilitated expression of tight junction-associated proteins in intestinal cells. […]
Supplementary Fig. 7. […] The grayscale values of WB bands were quantified, and the relative protein levels of MAPK components were normalized to β-actin. […]

[2] = cited from earlier work
HSP90α = details: targets the N-terminal of HSP90α; cited from earlier work

In the case of `COc1cccc(-c2cc(F)ccc2[C@H]2Cc3nc(N)nc(C)c3C(=O)N2)n1` [NVP-HSP990], the CC50 (Caco-2 cells) is reported as > 100 µM, the CC50 (HT-29 cells) is reported as > 100 µM and the “MAPK activation caused by non-infectious factors (drug stimulation)” value ([1]; Caco-2 cells, 1 µM C16-PAF, 100 nM NVP-HSP990, 20 h) is reported as “potently inhibited”. For the same molecule, the “MAPK activation (especially ERK1/2 and p38 MAPK)” value ([1]; RV-infected Caco-2 and HT-29 cells) was “significantly inhibited”, the “MAPK activation (especially ERK1/2 and p38 MAPK)” value ([1]; RV-infected MA104 cells) was “not” and the brain penetration [2] was “brain-penetrating”. The oral bioavailability [2] was “orally bioavailable” and the IC50 (HSP90α) was 0.0006 µM.
